Reference: patent US20240158406A1, “PIPERAZINE DERIVATIVE AND USE THEREOF IN MEDICINE” (CHENGDU BAIYU PHARMACEUTICAL CO., LTD., priority 2021, published 2024)

Assays:
NCI-H1373 cells = test: NCI-H1373 cell proliferation inhibition assay; type: cell-based; conditions: Homo sapiens, NCI-H1373, 144 h; 6 days of incubation, Cell Titer Blue
Procedure: Human lung adenocarcinoma cells NC-H1373 (ATCC, CRL-5866M) were cultured in a cell incubator at 37° C. and 5% CO2 using RPMI-1640 medium containing 10% FBS and 1% […]. The cells in the logarithmic growth phase were counted by digestion and inoculated in a 96-well plate at 1500 NCI-H1373 per well, and the plate was placed in an incubator overnight. The next day, test compounds were formulated in 10 mM stock solution by using DMSO and 3-fold diluted in gradient from a maximum concentration of 10 μM by using RPMI-1640 medium, and 10 gradient concentrations were set with 2 parallel wells per concentration gradient. After 6 days of incubation, 100 μL of Cell Titer Blue working solution was added to each well and the chemiluminescence value was read in a microplate reader. IC50 was calculated using GraphPad Prism7.0 software.

PARP7 = PARP7 (Homo sapiens (Human), UniProt Q7Z3E1); test: Enzymatic biochemical assay of PARP (chemiluminescence detection kit), PARP7; conditions: read-out: Inhibitory activity against PAPR7 (IC50)
Procedure: This assay adopted PARP1, TNKS1, TNKS2, PARP7 and PARP14 chemiluminescence detection kits (BPS, Cat No. 80551/80552/80573/80578/79729/80568) for enzymatic biochemical assay of PARP. The specific scheme was as follows: the 1× histone mixture was added to a 96-well plate at 50 μL per well, and the plate was incubated overnight at 4° C. The next day, after the plate was washed with PBST, 200 μL of blocking buffer per well was added, and the plate was incubated for 90 min. After the plate was washed with PBST again, 5 μL of inhibitor, 20 μL of 1×PARP buffer and 25 μL of […] were added to each well, and the plate was incubated at room temperature for 30 min. After the plate was washed with PBST, 100 μL of Elisa ECL substrate A and B mixture was added to each well, chemiluminescence value was immediately read using a plate reader, and IC50 values were calculated.

[1] = Metabolic stability in liver microsome; type: in vitro ADME; conditions: liver microsomes; 0.5 mg/mL CD1 mouse liver microsome, 0.5 μM test compound, NADPH and UDPGA, 37° C.
Procedure: 0.5 mg/mL CD1 mouse liver microsome solution, 0.5 μM test compound, 1.0 mM reduced nicotinamide adenine dinucleotide phosphate (NADPH), and 1.0 mM uridine diphosphate-A-glucuronic acid (UDPGA) were added to the incubation plate and mixed, and the plate was incubated at 37° C. for 0, 30, 60, 120 min separately. The positive control group was set as 0.5 μM CYP3A4 probe substrate-testosterone and 0.5 μM UGT probe substrate-7-hydroxycoumarin incubated with microsomes for 0 and 120 min in the presence of NADPH and UDPGA; the negative control group (NC) was set as the test substance incubated with microsomes for 0 and 120 min without any coenzyme. After the reaction was terminated by adding pre-cooled methanol at each termination time, the reaction mixture was centrifuged at 4000 rpm for 10 min, the supernatant was taken and the remaining amount of the parent drug in the sample was measured by LC-MS/MS, the results of which are shown in Table 4.

MDR1 = test: MDCKII-MDR1 cell permeability assay; type: in vitro ADME; conditions: dog, MDCK-MDR1, 1 μM test compound; for Papp A→B at 2 h, 1 μM: apical to basolateral; for Papp B→A at 2 h, 1 μM: basolateral to apical
Procedure: 50 μL of MDCKII-MDR1 cell suspension with a density of 1.56×10^6 cells/mL was seeded into a Transwell well of a 96-well plate, and the plate was cultured in a cell incubator at 37° C. in 5% CO2. […] The medium in Transwell was discarded, and HBSS equilibration solution was added and incubated at 37° C. for 30 min. Subsequently, an apical to basolateral drug transport rate assay was performed by adding 1 μM test compound solution to the Transwell AB side and a blank equilibration solution to the BL side. When the basolateral to apical drug transport rate assay was performed, the operation steps were reversed. Subsequently, the cells were placed in an incubator for 2 h. After the incubation, samples were taken from the basolateral and apical respectively, and after centrifugation, the supernatant was subjected to LC-MS/MS analysis, and the apparent permeability coefficient (Papp) was calculated, the results of which are shown in Table 5.

Sequence of PARP7 (Q7Z3E1 whole entry): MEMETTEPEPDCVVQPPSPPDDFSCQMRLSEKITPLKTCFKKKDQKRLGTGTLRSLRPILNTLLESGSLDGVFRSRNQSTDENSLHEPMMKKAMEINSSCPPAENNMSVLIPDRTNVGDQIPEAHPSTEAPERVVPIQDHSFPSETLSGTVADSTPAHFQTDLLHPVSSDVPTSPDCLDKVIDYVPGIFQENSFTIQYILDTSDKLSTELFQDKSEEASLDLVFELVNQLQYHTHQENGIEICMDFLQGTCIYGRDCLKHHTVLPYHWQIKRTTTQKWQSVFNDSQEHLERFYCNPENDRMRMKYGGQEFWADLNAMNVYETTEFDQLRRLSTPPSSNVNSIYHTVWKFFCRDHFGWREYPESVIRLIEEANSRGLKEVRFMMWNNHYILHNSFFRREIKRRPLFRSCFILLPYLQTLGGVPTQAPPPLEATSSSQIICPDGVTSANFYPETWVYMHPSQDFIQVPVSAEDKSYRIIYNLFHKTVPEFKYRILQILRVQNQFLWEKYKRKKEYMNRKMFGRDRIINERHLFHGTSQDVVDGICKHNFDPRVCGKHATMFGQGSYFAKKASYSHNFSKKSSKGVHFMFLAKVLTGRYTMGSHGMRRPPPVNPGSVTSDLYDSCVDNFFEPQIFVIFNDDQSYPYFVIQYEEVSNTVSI

IC50 (NCI-H1373 cells)	IC50 (PARP7)	Structure (SMILES)	also measured
< 50 nM		[2H]C([2H])(OC[C@H](C)Nc1cn[nH]c(=O)c1C(F)(F)F)c1cc2n(n1)CCN(c1ncc(C(F)(F)F)cn1)C2([2H])[2H] [Compound 2, (S)-4-(trifluoromethyl)-5-((1-((5-(5-(trifluoromethyl)pyrimidin-2-yl)-4,5,6,7-tetrahydropyrazolo[1,5-a]pyrazin-2-yl-4,4-d2)methoxy-d2)propan-2-yl)amino)pyridazin-3(2H)-one]	
< 50 nM	< 10 nM	C[C@H](OC[C@H](C)Nc1cn[nH]c(=O)c1C(F)(F)F)c1cc2n(n1)CCN(c1ncc(C(F)(F)F)cn1)C2 [Compound 3-I, 4-(Trifluoromethyl)-5-(((S)-1-((S)-1-(5-(5-(trifluoromethyl)pyrimidin-2-yl)-4,5,6,7-tetrahydropyrazolo[1,5-a]pyrazin-2-yl)ethoxy)propan-2-yl)amino)pyridazin-3(2H)-one]	
< 50 nM	10 to 50 nM	C[C@@H](COCc1nc2n(n1)CCN(c1ncc(C(F)(F)F)cn1)C2)Nc1cn[nH]c(=O)c1C(F)(F)F [Compound 9, (S)-4-(trifluoromethyl)-5-((1-((7-(5-(trifluoromethyl)pyrimidin-2-yl)-5,6,7,8-tetrahydro-[1,2,4]triazolo[1,5-a]pyrazin-2-yl)methoxy)propan-2-yl)amino)pyridazin-3(2H)-one]	half-life at 0.5 μM [1]: > 0.5 h
< 50 nM	10 to 50 nM	C[C@@H](COCc1nn2c(c1Cl)CN(c1ncc(C(F)(F)F)cn1)CC2)Nc1cn[nH]c(=O)c1C(F)(F)F [Compound 13, (S)-5-((1-((3-chloro-5-(5-(trifluoromethyl)pyrimidin-2-yl)-4,5,6,7-tetrahydropyrazolo[1,5-a]pyrazin-2-yl)methoxy)propan-2-yl)amino)-4-(trifluoromethyl)pyridazin-3(2H)-one]	efflux ratio at 2 h, 1 μM (MDR1): 2.28; Papp A→B at 2 h, 1 μM (MDR1): 6.67 ×10⁻⁶ cm/s; Papp B→A at 2 h, 1 μM (MDR1): 14.8 ×10⁻⁶ cm/s
< 50 nM		[2H]c1c(COC[C@H](C)Nc2cn[nH]c(=O)c2C(F)(F)F)nn2c1CN(c1ncc(C(F)(F)F)cn1)CC2 [Compound 25, (S)-4-(trifluoromethyl)-5-((1-((5-(5-(trifluoromethyl)pyrimidin-2-yl)-4,5,6,7-tetrahydropyrazolo[1,5-a]pyrazin-2-yl-d)methoxy)propan-2-yl)amino)pyridazin-3(2H)-one]	
< 50 nM		C[C@@H](COCc1nc2n(n1)CCN(c1ccc(C(F)(F)F)cn1)C2)Nc1cn[nH]c(=O)c1C(F)(F)F [Compound 26, (S)-4-(trifluoromethyl)-5-((1-((7-(5-(trifluoromethyl)pyridin-2-yl)-5,6,7,8-tetrahydro[1,2,4]triazolo[1,5-a]pyrazin-2-yl)methoxy)propan-2-yl)amino)pyridazin-3(2H)one]	half-life at 0.5 μM [1]: > 1.67 h
50 to 100 nM		O=c1[nH]ncc(N2CCC[C@H]2COCc2nc3n(n2)CCN(c2ncc(C(F)(F)F)cn2)C3)c1C(F)(F)F [Compound 28, (S)-4-(trifluoromethyl)-5-(2-(((7-(5-(trifluoromethyl)pyrimidin-2-yl)-5,6,7,8-tetrahydro-[1,2,4]triazolo[1,5-a]pyrazin-2-yl)methoxy)methyl)pyrrolidin-1-yl)pyridazin-3(2H)-one]	
50 to 100 nM		C[C@@H](COCc1cc2n(n1)CCN(c1ncc(C(F)(F)F)s1)C2)Nc1cn[nH]c(=O)c1C(F)(F)F [Compound 30]	

The next lines start with the compound.

Structure (SMILES)	IC50 (NCI-H1373 cells)	IC50 (PARP7)	also measured
C[C@@H](CO[C@H](C)c1cc2n(n1)CCN(c1ncc(C(F)(F)F)cn1)C2)Nc1cn[nH]c(=O)c1C(F)(F)F [Compound 3-II, 4-(Trifluoromethyl)-5-(((S)-1-((R)-1-(5-(5-(trifluoromethyl)pyrimidin-2-yl)-4,5,6,7-tetrahydropyrazolo[1,5-a]pyrazin-2-yl)ethoxy)propan-2-yl)amino)pyridazin-3(2H)-one]		50 to 100 nM	
C[C@@H](COCc1cc2n(n1)CCN(c1cnc(C(F)(F)F)cn1)C2)Nc1cn[nH]c(=O)c1C(F)(F)F [Compound 5, (S)-4-(trifluoromethyl)-5-((1-((5-(5-(trifluoromethyl)pyrazin-2-yl)-4,5,6,7-tetrahydropyrazolo[1,5-a]pyrazin-2-yl)methoxy)propan-2-yl)amino)pyridazin-3(2H)-one]	< 50 nM	< 10 nM	
C[C@@H](COCc1cc2n(n1)CCN(c1ccc(C(F)(F)F)cn1)C2=O)Nc1cn[nH]c(=O)c1C(F)(F)F [Compound 11, (S)-2-((2-((6-oxo-5-(trifluoromethyl)-1,6-dihydropyridazin-4-yl)amino)propoxy)methyl)-5-(5-(trifluoromethyl)pyridin-2-yl)-6,7-dihydropyrazolo[1,5-a]pyrazin-4(5H)-one]	50 to 100 nM		half-life at 0.5 μM [1]: > 1.67 h
C[C@@H](COCc1nn2c(c1Cl)CN(c1cnc(C(F)(F)F)cn1)CC2)Nc1cn[nH]c(=O)c1C(F)(F)F [Compound 14, (S)-5-((1-((3-chloro-5-(5-(trifluoromethyl)pyrazin-2-yl)-4,5,6,7-tetrahydropyrazolo[1,5-a]pyrazin-2-yl)methoxy)propan-2-yl)amino)-4-(trifluoromethyl)pyridazin-3(2H)-one]	50 to 100 nM		
C[C@@H](COCc1nn2c(c1C(F)(F)F)CN(c1ncc(C(F)(F)F)cn1)CC2)Nc1cn[nH]c(=O)c1C(F)(F)F [Compound 19, (S)-4-(trifluoromethyl)-5-((1-((3-(trifluoromethyl)-5-(5-(trifluoromethyl)pyrimidin-2-yl)-4,5,6,7-tetrahydropyrazolo[1,5-a]pyrazin-2-yl)methoxy)propan-2-yl)amino)pyridazin-3(2H)-one]	< 50 nM		
[2H]C([2H])(OC[C@H](C)Nc1cn[nH]c(=O)c1C(F)(F)F)c1cc2n(n1)CCN(c1cnc(C(F)(F)F)cn1)C2([2H])[2H] [Compound 21, (S)-4-(trifluoromethyl)-5-((1-((5-(5-(trifluoromethyl)pyrazin-2-yl)-4,5,6,7-tetrahydropyrazolo[1,5-a]pyrazin-2-yl-4,4-d2)methoxy-d2)propan-2-yl)amino)pyridazin-3(2H)-one]	< 50 nM	< 10 nM	
[2H]C([2H])(OC[C@H](C)Nc1cn[nH]c(=O)c1C(F)(F)F)c1cc2n(n1)CCN(c1ccc(C#N)cn1)C2([2H])[2H] [Compound 23, (S)-6-(2-((2-((6-oxo-5-(trifluoromethyl)-1,6-dihydropyridazin-4-yl)amino)propoxy)methyl-d2)-6,7-dihydropyrazolo[1,5-a]pyrazin-5(4H)-yl-4,4-d2)nicotinonitrile]	50 to 100 nM		
CC[C@@H](COCc1nc2n(n1)CCN(c1ncc(C(F)(F)F)cn1)C2)Nc1cn[nH]c(=O)c1C(F)(F)F [Compound 37, (S)-4-(trifluoromethyl)-5-((1-((7-(5-(trifluoromethyl)pyrimidin-2-yl)-5,6,7,8-tetrahydro-[1,2,4]triazolo[1,5-a]pyrazin-2-yl)methoxy)butan-2-yl)amino)pyridazin-3(2H)-one]			half-life at 0.5 μM [1]: > 1.67 h
CSc1cnc(N2CCn3nc(COC[C@H](C)Nc4cn[nH]c(=O)c4C(F)(F)F)cc3C2)nc1 [Compound 39, (S)-5-((1-((5-(5-(methylthio)pyrimidin-2-yl)-4,5,6,7-tetrahydropyrazolo[1,5-a]pyrazin-2-yl)methoxy)propan-2-yl)amino)-4-(trifluoromethyl)pyridazin-3(2H)-one]	< 50 nM		efflux ratio at 2 h, 1 μM (MDR1): 4.09; Papp A→B at 2 h, 1 μM (MDR1): 8.82 ×10⁻⁶ cm/s; Papp B→A at 2 h, 1 μM (MDR1): 35.5 ×10⁻⁶ cm/s
